Experimental data from patent publication US12077503B2, “Substituted cyclic amides and their use as herbicides” (FMC CORPORATION, priority 2015, dated 2024).

Legend:
Assay type in all cases: in vivo
[1] = test system: Kochia (Kochia scoparia); assay: Test A preemergence; conditions: Bassia scoparia, pre-emergence, 240 h, 0 to 100 scale where 0 is no effect and 100 is complete control, read-out: Kochia plant response rating
In short: (§1)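 Each rating is a visual injury score from 0 to 100 given about 10 d after treatment, judged against untreated controls kept alongside in the greenhouse. In loam soil–sand blend, seeds got a preemergence directed soil spray, while postemergence plants were 2 to 10 cm tall at spraying.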

[2] = test system: barnyardgrass (Echinochloa crus-galli); assay: Test A preemergence; conditions: Echinochloa crus-galli, pre-emergence, 240 h, 0 to 100 scale where 0 is no effect and 100 is complete control, read-out: Barnyardgrass plant response rating
In short: as §1

[3] = test system: giant foxtail (Setaria faberii); assay: Test A preemergence; conditions: Setaria faberi, pre-emergence, 240 h, 0 to 100 scale where 0 is no effect and 100 is complete control, read-out: Foxtail, Giant plant response rating
In short: as §1

[4] = test system: pigweed (Amaranthus retroflexus); assay: Test A preemergence; conditions: Amaranthus retroflexus, pre-emergence, 240 h, 0 to 100 scale where 0 is no effect and 100 is complete control, read-out: Pigweed plant response rating
[5] = test system: ragweed (common ragweed, Ambrosia elatior); assay: Test A preemergence; conditions: Ambrosia artemisiifolia, pre-emergence, 240 h, 0 to 100 scale where 0 is no effect and 100 is complete control, read-out: Ragweed plant response rating
In short: as §1

[6] = test system: ryegrass, Italian (Italian ryegrass, Lolium multiflorum); assay: Test A preemergence; conditions: Lolium multiflorum, pre-emergence, 240 h, 0 to 100 scale where 0 is no effect and 100 is complete control, read-out: Ryegrass, Italian plant response rating
In short: as §1

[7] = test system: Galium (catchweed bedstraw, Galium aparine); assay: Test A postemergence; conditions: Galium, post-emergence, 240 h
In short: as §1

[8] = test system: Kochia (Kochia scoparia); assay: Test A postemergence; conditions: Bassia scoparia, post-emergence, 240 h
In short: as §1

[9] = test system: barnyardgrass (Echinochloa crus-galli); assay: Test A postemergence; conditions: Echinochloa crus-galli, post-emergence, 240 h
In short: as §1

[10] = test system: blackgrass (Alopecurus myosuroides); assay: Test A postemergence; conditions: Alopecurus myosuroides, post-emergence, 240 h
In short: as §1

[11] = test system: corn (Zea mays); assay: Test A postemergence; conditions: Zea mays, post-emergence, 240 h
In short: as §1

[12] = test system: giant foxtail (Setaria faberii); assay: Test A postemergence; conditions: Setaria faberi, post-emergence, 240 h
In short: as §1

[13] = test system: pigweed (Amaranthus retroflexus); assay: Test A postemergence; conditions: Amaranthus retroflexus, post-emergence, 240 h
In short: as §1

[14] = test system: ragweed (common ragweed, Ambrosia elatior); assay: Test A postemergence; conditions: Ambrosia artemisiifolia, post-emergence, 240 h
In short: as §1

[15] = test system: ryegrass, Italian (Italian ryegrass, Lolium multiflorum); assay: Test A postemergence; conditions: Lolium multiflorum, post-emergence, 240 h
In short: as §1

[16] = test system: wheat (Triticum aestivum); assay: Test A postemergence; conditions: Triticum aestivum, post-emergence, 240 h
In short: as §1

[17] = test system: barnyardgrass (Echinochloa crus-galli); assay: Test B flooded paddy test; conditions: Echinochloa crus-galli, 250 g ai/ha, Flood; 0 to 100 scale where 0 is no effect and 100 is complete control; read-out: Barnyardgrass plant response rating
In short: (§2)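 Compound goes directly into floodwater once pots are flooded 3 cm above soil, targeting plants at two leaves; the water depth is then held for the test duration. Plants sit 13–15 d in a greenhouse and are rated visually, 100 denoting complete control.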

[18] = test system: ducksalad (Heteranthera limosa); assay: Test B flooded paddy test; conditions: Heteranthera limosa, 250 g ai/ha, Flood; 0 to 100 scale where 0 is no effect and 100 is complete control; read-out: Ducksalad plant response rating
In short: as §2

[19] = test system: rice (Oryra sativa); assay: Test B flooded paddy test; conditions: Oryza sativa, 250 g ai/ha, Flood; 0 to 100 scale where 0 is no effect and 100 is complete control; read-out: Rice plant response rating
In short: as §2

[20] = test system: sedge, umbrella (small-flower umbrella sedge, Cyperus difformis); assay: Test B flooded paddy test; conditions: Cyperus difformis, 250 g ai/ha, Flood; 0 to 100 scale where 0 is no effect and 100 is complete control; read-out: Sedge, Umbrella plant response rating
In short: as §2

[21] = 125 g ai/ha, preemergence, approx. 10 d

CN1C[C@H](c2ccc(F)c(Oc3ccccc3)c2)[C@@H](C(=O)Nc2ccccc2F)C1=O [Compound 1141]
30%: pest or weed control at 31 g/ha ([2]; 31 g ai/ha, Preemergence) | pest or weed control at 31 g/ha ([4]; 31 g ai/ha, Preemergence) | pest or weed control at 125 g/ha ([8]; 125 g ai/ha, postemergence, visual injury on 0 to 100 scale (0 no effect, 100 complete control), approx. 10 d, read-out: Kochia plant response rating) | pest or weed control at 125 g/ha ([10]; 125 g ai/ha, postemergence, visual injury on 0 to 100 scale (0 no effect, 100 complete control), approx. 10 d, read-out: Blackgrass plant response rating) | pest or weed control at 31 g/ha ([13]; Postemergence, 31 g ai/ha, visual injury after approx. 10 d, 0 to 100 scale, 0 no effect, 100 complete control, read-out: Plant response rating, Pigweed) | pest or weed control at 125 g/ha ([14]; 125 g ai/ha, postemergence, visual injury vs untreated controls after approx. 10 d, 0 = no effect, 100 = complete control, read-out: Ragweed plant response rating (0 to 100 scale))
50%: pest or weed control at 125 g/ha ([13]; 125 g ai/ha, postemergence, visual injury vs untreated controls after approx. 10 d, 0 = no effect, 100 = complete control, read-out: Pigweed plant response rating (0 to 100 scale)) | pest or weed control at 125 g/ha ([15]; 125 g ai/ha, postemergence, visual injury vs untreated controls after approx. 10 d, 0 = no effect, 100 = complete control, read-out: Ryegrass, Italian plant response rating (0 to 100 scale)) | pest or weed control at 250 g/ha [17]
80%: pest or weed control at 125 g/ha [2, 21] | pest or weed control at 31 g/ha ([3]; 31 g ai/ha, Preemergence)
0%: pest or weed control at 31 g/ha ([1]; 31 g ai/ha, Preemergence) | pest or weed control at 125 g/ha [1, 21] | pest or weed control at 31 g/ha ([5]; 31 g ai/ha, Preemergence) | pest or weed control at 125 g/ha [5, 21] | pest or weed control at 31 g/ha ([6]; 31 g ai/ha, Preemergence) | pest or weed control at 31 g/ha ([8]; Postemergence, 31 g ai/ha, visual injury after approx. 10 d, 0 to 100 scale, 0 no effect, 100 complete control, read-out: Plant response rating, Kochia) | pest or weed control at 31 g/ha ([10]; Postemergence, 31 g ai/ha, visual injury after approx. 10 d, 0 to 100 scale, 0 no effect, 100 complete control, read-out: Plant response rating, Blackgrass) | Corn plant response rating (crop injury, 0 = no effect, 100 = complete kill) at 31 g/ha ([11]; Postemergence, 31 g ai/ha, visual injury after approx. 10 d, 0 to 100 scale, 0 no effect, 100 complete control) | pest or weed control at 31 g/ha ([14]; Postemergence, 31 g ai/ha, visual injury after approx. 10 d, 0 to 100 scale, 0 no effect, 100 complete control, read-out: Plant response rating, Ragweed) | plant injury at 31 g/ha ([16]; Postemergence, 31 g ai/ha, visual injury after approx. 10 d, 0 to 100 scale, 0 no effect, 100 complete control, read-out: Plant response rating, Wheat) | pest or weed control at 250 g/ha [19] | pest or weed control at 250 g/ha [20]
20%: plant injury at 125 g/ha ([11]; 125 g ai/ha, postemergence, visual injury on 0 to 100 scale (0 no effect, 100 complete control), approx. 10 d, read-out: Corn plant response rating) | pest or weed control at 31 g/ha ([15]; Postemergence, 31 g ai/ha, visual injury after approx. 10 d, 0 to 100 scale, 0 no effect, 100 complete control, read-out: Plant response rating, Ryegrass, Italian) | plant injury at 125 g/ha ([16]; 125 g ai/ha, postemergence, visual injury vs untreated controls after approx. 10 d, 0 = no effect, 100 = complete control, read-out: Wheat plant response rating (0 to 100 scale))
90%: pest or weed control at 125 g/ha [3, 21] | pest or weed control at 125 g/ha ([7]; 125 g ai/ha, postemergence, visual injury on 0 to 100 scale (0 no effect, 100 complete control), approx. 10 d, read-out: Galium plant response rating) | pest or weed control at 125 g/ha ([9]; 125 g ai/ha, postemergence, visual injury on 0 to 100 scale (0 no effect, 100 complete control), approx. 10 d, read-out: Barnyardgrass plant response rating) | pest or weed control at 125 g/ha ([12]; 125 g ai/ha, postemergence, visual injury on 0 to 100 scale (0 no effect, 100 complete control), approx. 10 d, read-out: Foxtail, Giant plant response rating) | pest or weed control at 250 g/ha [18]
40%: pest or weed control at 125 g/ha [6, 21]
60%: pest or weed control at 125 g/ha [4, 21] | pest or weed control at 31 g/ha ([7]; Postemergence, 31 g ai/ha, visual injury after approx. 10 d, 0 to 100 scale, 0 no effect, 100 complete control, read-out: Plant response rating, Galium) | pest or weed control at 31 g/ha ([9]; Postemergence, 31 g ai/ha, visual injury after approx. 10 d, 0 to 100 scale, 0 no effect, 100 complete control, read-out: Plant response rating, Barnyardgrass) | pest or weed control at 31 g/ha ([12]; Postemergence, 31 g ai/ha, visual injury after approx. 10 d, 0 to 100 scale, 0 no effect, 100 complete control, read-out: Plant response rating, Foxtail, Giant)
